In patent publication US20260223850A1, “SUBSTITUTED PYRROLIDONE COMPOUND, PREPARATION METHOD THEREFOR, COMPOSITION AND APPLICATION THEREOF” (QINGDAO KINGAGROOT CHEMICAL COMPOUND CO., LTD., priority 2023, published 2026):
Like-named read-outs stand apart in the source and are kept apart here.

How the values were obtained:
Format in all cases: in vivo
[1] = tested on: weeds; assay: Activity assay of compositions, post-emergence spray treatment of stems and leaves (F); details: F
Procedure: (§1) The required active ingredient B was purchased from a reagent company or a technical material manufacturer or synthesized by a conventional method. The technical materials were all dissolved with acetone solvents and diluted with aqueous solution of 0.1% Tween® 80 emulsifier, which should be used immediately after dilution.
Weeds were cultivated by the pot culture method. […] Weed seeds with plump and uniform grains were selected, soaked in lukewarm water at 25° C. for 6 hours, and accelerated to germinate in a 28° C. biochemical incubator (in darkness). The weed seeds that had just germinated were evenly placed on the surface of the soil and then covered with 0.5-1 cm soil according to the sizes of seeds.
The weeds were cultured in a controllable sunlight greenhouse at 20-30° C., in natural light and with relative humidity of 57%-72%.
Each treatment was repeated 4 times. Three pots with 20 weed seeds sowed per pot were treated each time.
The drug was applied once in total in the experiment. When at 1.5-2 leaf stage, the weeds were thinned out to maintain 10 strains per pot. Thirty strains were kept in each treatment and then continued to be cultured until the 3-4 leaf stage for further treatment.
The well-cultured test materials were evenly placed on a 0.5 m^2 platform and foliage-sprayed by the 3WP-2000-type walking spray tower at a dosage of […] and a spray pressure of 0.3 MPa. After all the drug solution was sprayed, the air valve was closed. And 30 seconds later, the door of the spray tower was opened, and the nutritional bowl was taken out. Next, the air valve was opened, and the spray tube was cleaned by spraying 50 mL of water. The test materials were transferred to and routinely cultured in a greenhouse after the treatment.
(§2) A method for investigating absolute numbers was employed. The whole seedlings of the survival weeds were cut along the soil surface with a blade, and the fresh weight of the weeds was weighed by an analytical balance. For dead weeds, the fresh weight thereof was considered zero.
(§3) The investigation was performed 21 days after the treatment for once in total.
(§4) The theoretical fresh weight inhibition rate of a mixed combination of each treatment was calculated by the Gowing method (E0═X+Y−X*Y/100), then compared with the measured inhibition rate (E) to evaluate the type of the combined action of the combination of the two on weeds. The combined action was a synergistic effect when E−E0 >10%; an antagonistic effect when E−E0<−10%; an additional effect when −10%≤E−E0≤10%. An optimal ratio was determined according to factors such as actual control effects, characteristics of herbicides, balance of the formulation, etc. In the formula, X represents the fresh weight inhibition rate of the active ingredient A in a dosage of P; Y represents the fresh weight inhibition rate of the active ingredient B in a dosage of Q. The statistical results are shown in Table 6.

[2] = tested on: Digitaria sanguinalis; assay: Seedling stage sealing experiment for water-seeding; details: 120 g a.i./ha, seedling stage sealing, 15 days, fresh weight control rate
Procedure, shortened: (§5)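 Scores (0 = no effect to 9 = dead) reflect fresh-weight control rate 15 days after spray application in greenhouse at 15, 30, 60 or 120 g a.i./ha, mean of three replicates. Seeds were broadcast and soil-covered in pots held moist in water-filled cultivation boxes.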

[3] = tested on: Echinochloa crusgalli; assay: as above; details: 120 g a.i./ha, seedling stage sealing, 15 days, fresh weight control rate
[4] = tested on: Mythimna separata; assay: Insecticidal activity assay, spraying method; details: 3rd instar, spray, 48 h after drug application
Procedure: (§6) Spraying method: the technical material was weighed and dissolved with acetone, and the drug liquid was diluted with distilled water to different concentrations. The 2nd instar Spodoptera frugiperda test insects or the 3rd instar Mythimna separata test insects reared indoors with consistent physiological conditions were selected. Ten test insects were picked into each petri dish. Two 2 cm-long corn leaves were placed in the petri dish and sprayed using a spray tower. Each dosage was repeated 3 times, with acetone of the corresponding concentration as a control. After drug application, the insects were transferred to and reared in a condition where the temperature was 25° C. and the humidity was 60%. The results were investigated 48 h after drug application and the death number per treatment was collected, respectively. The mortality was calculated in accordance with the following equation: Mortality (%)=(Number of dead insects/Number of test insects)×100.

[5] = tested on: Leptochloa chinensis; assay: Seedling stage sealing experiment for water-seeding; details: 120 g a.i./ha, 15 days, fresh weight control rate
Procedure, shortened: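 Seeds sown in soil-filled bowls kept moist in water-filled boxes; compound in acetone diluted with water and spray-applied at 120, 60, 30 and 15 g a.i./ha, triplicate. After 15 days in greenhouse, fresh-weight growth control scored on a 0–9 scale (9 = dead, 0 = no effect), averaged.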

[6] = tested on: Spodoptera frugiperda; assay: Insecticidal activity assay, spraying method; details: 2nd instar, spray, 48 h after drug application; for Spodoptera frugiperda/% (mortality): 500 ppm
Procedure: as §6

[7] = tested on: Huaidao (rice cultivar); assay: Seedling stage sealing experiment for water-seeding (crop safety); details: 120 g a.i./ha, seedling stage sealing, 15 days, fresh weight control rate
Procedure, shortened: as §5

[8] = tested on: weeds; assay: Activity assay of compositions, soil sealing treatment (S)
From the text: as §1
The test soil was quantitatively filled to ¾ of a pot, and then watered from the bottom of the pot to completely wet the soil to saturation. The seeds of the test weeds were accelerated to Just germinate, and then evenly and quantitatively broadcasted on the soil surface, covered with 0.5-1 cm soil according to the sizes of the seeds, and ready for use 72 hours after broadcasting.
Each treatment was repeated 4 times. Four pots were treated each time with 20 weed seeds per pot.
The seeds were planted in a 20 cm*30 cm square box. Water was added to 2-3 cm deep after sowing, then injected with the drug agent using a syringe, stirred evenly, and left to stand for 2 days to dry naturally. The soil was kept moist afterwards.
as §2, §3
as §4, with “etc.” for “etc. In the formula, X represents the fresh weight inhibition rate of the active ingredient A in a dosage of P; Y represents the fresh weight inhibition rate of the active ingredient B in a dosage of Q. The statistical results are shown in Table 6.”

[9] = Alisma plantago-aquatica, B 30 g a.i./ha
[10] = Alisma plantago-aquatica, B 60 g a.i./ha
[11] = Alisma plantago-aquatica, S, B 3.75 g a.i./ha
[12] = Alisma plantago-aquatica, S, B 7.5 g a.i./ha
[13] = soil, Rotala indica, S, B 150 g a.i./ha, read-out: Control effect of B applied alone in a corresponding dose (%)
[14] = Rotala indica, soil, read-out: Control effect of B applied alone in a corresponding dose (%)
[15] = Rotala indica, S, B 30 g a.i./ha
[16] = Paspalum distichum, soil, read-out: Control effect of B applied alone in a corresponding dose (%)
[17] = Rotala indica, S, B 15 g a.i./ha

Compound: COCCOC(=O)c1nc(-c2ccc(C(F)(F)F)c(OC)c2F)nc(N)c1OC
- Control effect of B applied alone in a corresponding dose (%) ([1]; Alisma plantago-aquatica, B 3.75 g a.i./ha): 43.5%
- Control effect of B applied alone in a corresponding dose (%) ([1]; Alisma plantago-aquatica, B 7.5 g a.i./ha): 57.2%

Compound: C[C@@H](Oc1nc(F)c(Cl)c(N)c1Cl)C(=O)OCC1CCCO1 (stereo partly drawn)
- Control effect of B applied alone in a corresponding dose (%) [1, 9]: 38.7%
- Control effect of B applied alone in a corresponding dose (%) [1, 10]: 45.6%

Compound: Cc1cc(C)cc([C@H]2CN(C)C(=O)[C@@H]2C(=O)Nc2cnn(C)c2C2CC2)c1 [277′]
- Digitaria sanguinalis activity level (growth control rate) [2]: 6 (Level 6: growth control rate greater than or equal to 70% and less than 80%)
- Echinochloa crusgalli activity level (growth control rate) [3]: 9
- Mythimna separata/% (mortality) ([4]; 100 ppm): 95%
- Leptochloa chinensis activity level (growth control rate) [5]: 9

Compound: Cc1cc(C)cc([C@H]2CN(C)C(=O)[C@@H]2C(=O)Nc2cnn(C)c2-c2ccc(Cl)cc2)c1 [281′]
- Mythimna separata/% (mortality) ([4]; 500 ppm): 60%

Compound: Cc1cc([C@H]2CN(C)C(=O)[C@@H]2C(=O)Nc2cnn(C)c2Cl)nn1C(F)F [340′]
- mortality at 500 ppm ([4]; Mythimna separata, 500 ppm): 100%
- mortality at 500 ppm ([6]; Spodoptera frugiperda): 87%

Compound: Cc1cc(C)cc([C@H]2CN(C)C(=O)[C@@H]2C(=O)Nc2cnn(-c3ccccc3)c2Cl)c1 [421′]
- Echinochloa crusgalli activity level (growth control rate) [3]: 9
- Huaidao (rice cultivar) plant damage level [7]: 0
- Mythimna separata/% (mortality) ([4]; 500 ppm): 75%
- Spodoptera frugiperda/% (mortality) [6]: 65%

Compound: Cc1cc(C)cc([C@H]2CN(C)C(=O)[C@@H]2C(=O)Nc2cnn(C(=O)OC(C)(C)C)c2Cl)c1 [491′]
- Mythimna separata/% (mortality) ([4]; 500 ppm): 70%
- Spodoptera frugiperda/% (mortality) [6]: 60%

Compound: Cc1cc(C)cc([C@H]2CN(C)C(=O)[C@@H]2C(=O)Nc2cnn(C)c2C=O)c1 [500′]
- Mythimna separata/% (mortality) ([4]; 500 ppm): 70%
- Spodoptera frugiperda/% (mortality) [6]: 60%

Compound: Cc1ccc([C@H]2CN(C)C(=O)[C@@H]2C(=O)Nc2cnn(C)c2Cl)o1 [522′]
- Mythimna separata/% (mortality) ([4]; 500 ppm): 70%
- Spodoptera frugiperda/% (mortality) [6]: 60%

Compound: CC(C)N1C(=O)c2ccccc2NS1(=O)=O [Bentazone, bentazone, reference compound]
- Control effect of B applied alone in a corresponding dose (%) ([1]; Paspalum distichum, B 375 g a.i./ha): 29.2%
- Control effect of B applied alone in a corresponding dose (%) ([1]; Paspalum distichum, B 750 g a.i./ha): 36.7%

Compound: COc1c(Cl)ccc(-c2nc(C(=O)OCc3ccccc3)c(Cl)c(N)c2F)c1F [Florpyrauxifen-benzyl, florpyrauxifen-benzyl]
- Control effect of B applied alone in a corresponding dose (%) [8, 11]: 62.8%
- Control effect of B applied alone in a corresponding dose (%) [8, 12]: 74.6%

Compound: Nc1c(Cl)c(F)nc(OCC(=O)O)c1Cl [Fluroxypyr, fluroxypyr, reference compound]
- Control effect of B applied alone in a corresponding dose (%) [1, 9]: 52.5%
- Control effect of B applied alone in a corresponding dose (%) [1, 10]: 65.8%

Compound: COC(=O)c1nc(-c2ccc(Cl)c(OC)c2F)cc(N)c1Cl [Halauxifen-methyl, halauxifen-methyl]
- Control effect of B applied alone in a corresponding dose (%) [8, 11]: 58.4%
- Control effect of B applied alone in a corresponding dose (%) [8, 12]: 68.9%

Compound: CN(C(=O)COc1nc2ccccc2s1)c1ccccc1 [Mefenacet, mefenacet]
- pest or weed control at 150 g/ha [8, 13]: 38.4%
- pest or weed control at 300 g/ha ([8]; soil, Rotala indica, S, B 300 g a.i./ha, read-out: Control effect of B applied alone in a corresponding dose (%)): 58.3%

Compound: CC(C)Oc1cc(-n2nc(C(C)(C)C)oc2=O)c(Cl)cc1Cl [Oxadiazon, oxadiazon]
- pest or weed control at 30 g/ha ([8]; soil, Rotala indica, S, B 30 g a.i./ha, read-out: Control effect of B applied alone in a corresponding dose (%)): 50.5%
- pest or weed control at 60 g/ha ([8]; soil, Rotala indica, S, B 60 g a.i./ha, read-out: Control effect of B applied alone in a corresponding dose (%)): 68.7%

Compound: CC1=C(c2ccccc2)C(=O)N(C(C)(C)c2cc(Cl)cc(Cl)c2)CO1 [Oxaziclomefone, oxaziclomefone]
- pest or weed control at 7.5 g/ha ([8]; soil, Paspalum distichum, S, B 7.5 g a.i./ha, read-out: Control effect of B applied alone in a corresponding dose (%)): 36.9%
- pest or weed control at 15 g/ha ([8]; soil, Paspalum distichum, S, B 15 g a.i./ha, read-out: Control effect of B applied alone in a corresponding dose (%)): 48.5%

Compound: CCOc1cc(Oc2ccc(C(F)(F)F)cc2Cl)ccc1[N+](=O)[O-] [Oxyfluorfen, oxyfluorfen]
- pest or weed control at 7.5 g/ha ([8]; soil, Rotala indica, S, B 7.5 g a.i./ha, read-out: Control effect of B applied alone in a corresponding dose (%)): 51%
- pest or weed control at 15 g/ha ([8]; soil, Rotala indica, S, B 15 g a.i./ha, read-out: Control effect of B applied alone in a corresponding dose (%)): 69.3%

Compound: CC(C)=C1OC(=O)N(c2cc(OC3CCCC3)c(Cl)cc2F)C1=O [Pentoxazone, pentoxazone]
- pest or weed control at 30 g/ha [8, 14]: 55.3%
- pest or weed control at 60 g/ha [8, 14]: 62.7%

Compound: CCCOCCN(C(=O)CCl)c1c(CC)cccc1CC [Pretilachlor, pretilachlor]
- pest or weed control at 75 g/ha ([8]; soil, Rotala indica, S, B 75 g a.i./ha, read-out: Control effect of B applied alone in a corresponding dose (%)): 54.2%
- pest or weed control at 150 g/ha [8, 13]: 63.9%

Compound: CCC(=O)Nc1ccc(Cl)c(Cl)c1 [Propanil, propanil, reference compound]
- Control effect of B applied alone in a corresponding dose (%) ([1]; Paspalum distichum, B 300 g a.i./ha): 48.3%
- Control effect of B applied alone in a corresponding dose (%) ([1]; Paspalum distichum, B 600 g a.i./ha): 56.1%

Compound: C#CCN(C)c1c(C#N)cnn1-c1nn2c(c1Cl)CCCC2 [Pyraclonil, pyraclonil]
- Control effect of B applied alone in a corresponding dose (%) [8, 15]: 48.2%
- Control effect of B applied alone in a corresponding dose (%) ([8]; Rotala indica, S, B 60 g a.i./ha): 63.4%

Compound: CCNc1nc(NCC)nc(SC)n1 [Simetryn, simetryn]
- pest or weed control at 75 g/ha [8, 16]: 45.5%
- pest or weed control at 150 g/ha [8, 16]: 54.8%

Compound: CS(=O)(=O)c1ccc(C(=O)C2C(=O)CCCC2=O)c(Cl)c1COCC1CCCO1 (stereo not drawn) [Tefuryltrione, tefuryltrione]
- Control effect of B applied alone in a corresponding dose (%) [8, 17]: 30.8%
- Control effect of B applied alone in a corresponding dose (%) [8, 15]: 45.2%

Compound: oxadiargyl
- Control effect of B applied alone in a corresponding dose (%) ([8]; Rotala indica, S, B 7.5 g a.i./ha): 47.2%
- Control effect of B applied alone in a corresponding dose (%) [8, 17]: 58.6%
